{
  "source": "paper PMC8062851",
  "about": "“2-Methoxyestradiol and its derivatives inhibit store-operated Ca^2+ entry in T cells: Identification of a new and potent inhibitor” (Biochimica et Biophysica Acta. Molecular Cell Research, 2021)",
  "key": {"TMBP cells": {"system": "TMBP cells", "test": "In vitro activation of TMBP cells by MBP, CD25 surface expression by flow cytometry", "assay_type": "cell-based, rat", "procedure": "In vitro activation assays were performed in 96-well plates. […]. TMBP cell activation on mRNA level was determined using qPCR and on surface protein level using surface marker staining and subsequent flow cytometry analysis.\nTo assess in vitro T cell activation, surface staining for CD25 (OX39, Bio-Rad) was performed. APC-labelled goat anti-mouse antibody (Jackson ImmunoResearch) was used as secondary antibody. Mouse IgG1κ (MOPC 31C, Sigma-Aldrich) was used as control.\nCytofluorometric analysis was carried out with a CytoFLEX S (Beckman Coulter) operated by CytExpert software (Beckman Coulter). All procedures were performed at 4 °C. Data were analyzed by using FlowJo software (FlowJo, LLC)."}, "human PBMCs": {"system": "human PBMCs", "test": "In vitro activation of human PBMCs by anti-CD3, interferon-γ mRNA by qPCR", "assay_type": "cell-based", "details": "human PBMC; anti-CD3 stimulation; 24 h; qPCR", "procedure": "In vitro activation assays were performed in 96-well plates. Briefly, 10^5 PBMCs isolated from human peripheral blood by Ficoll gradient were added onto plates coated with anti-human CD3 monoclonal antibody (5 μg ml^−1 in PBS, clone OKT3, Biolegend). 2ME2 or STX564 dissolved in DMSO were added in varying concentrations (0.01, 0.1, 1, 10 μM). […]. PBMC activation on mRNA level was determined using qPCR on samples collected 24 h after CD3 stimulation.\nTotal RNA was isolated using the standard TRIzol method. cDNA was synthesized using the RevertAid First Strand cDNA Synthesis Kit (Thermo Fisher Scientific). Quantitative PCR (qPCR) was performed using the StepOnePlus™ Real-Time PCR System (Applied Biosystems), as previously described [[23], [24], [25]]. Rat TMBP cell data were obtained from three to four independent duplicate measurements. β-actin served as housekeeping gene. Human PBMC data were obtained from two independent healthy donors and duplicate measurements (representative data of one donor are shown). HPRT served as housekeeping gene. For all probes (TaqMan), a combination of 5′-FAM and 3′-TAMRA quencher was used as described."}, "[1]": {"system": "SOCE in primary human CD4+ T cells", "test": "SOCE inhibition, Ca2+ free/Ca2+ re-addition protocol in primary human CD4+ T cells", "assay_type": "cell-based", "procedure": "Buffy coats were obtained from the blood bank of the University Medical Center Hamburg-Eppendorf (UKE) and peripheral blood mononuclear cells (PBMCs) were isolated by Biocoll density gradient centrifugation (Merck). Human CD4^+ T cells were isolated from PBMCs by negative selection using the EasySep Human CD4^+ T Cell Enrichment Kit (Stemcell Technologies) according to the manufacturer's protocol. The purity of the isolated cells was assessed by flow cytometry.\nJurkat T-lymphocytes, primary human CD4^+ T cells and H1299 cells were pelleted at 450 ×g for 5 min, rat TMBP at 300 ×g for 8 min at room temperature and were resuspended in 1 ml of either standard JMP medium (Jurkat, H1299 and human CD4^+ T cells) or standard DMEM based medium containing 10% fetal bovine serum (FBS) (v/v) (TMBP cells). Resting TMBP cells (day 5–7 after re-stimulation) after the second to fifth re-stimulation were thawed from liquid nitrogen 12 to 40 h prior to Fura2-loading. After pre-incubation for 5 min at 37 °C, cells were incubated with 4 μM Fura2-AM for 15 min at 37 °C. After addition of the dye, cells were kept in the dark. Afterwards, cells and the dye were diluted by addition of 4 ml standard medium and incubated for another 15 min. Cells were washed twice in Ca^2+ buffer (140 mM NaCl, 5 mM KCl, 1 mM MgSO4, 1 mM CaCl2, 1 mM NaH2PO4, 20 mM HEPES, 5.5 mM glucose; pH 7.4 (NaOH), sterile filtered) and were diluted to a concentration of 2*10^6 cells/ml. Subsequently, cells were kept at room temperature for 20 min for de-esterification before the start of the first measurement.\n10^6 Jurkat T-lymphocytes, H1299 cells, TMBP cells or 4*10^6 primary human CD4^+ T cells were added into a 10 × 10 mm quartz glass cuvette (Hellma Analytics, Germany) that was placed into a fluorescence spectrophotometer (F-2710, Hitachi, Japan). […] Fluorescence intensity was measured at an emission wavelength of 495 ± 5 nm for both excitation wavelengths."}},
  "data": [
    {"smiles": "CCc1cc2c(cc1OS(N)(=O)=O)CC[C@@H]1[C@@H]2CC[C@]2(C)[C@@H](CC#N)CC[C@@H]12", "note": "[STX564, 2-ethyl-3-sulfamoyloxy-17β-cyanomethylestra-1,3,5(10)-triene]", "values": [
      {"measurement": "concentration at which up-regulation of CD25 was significantly reduced", "setting": "TMBP cells", "result": "≥ 0.1", "unit": "µM"},
      {"measurement": "concentration at which antagonist effects on interferon-γ expression were observed", "setting": "human PBMCs", "result": "≥ 1", "unit": "µM"},
      {"measurement": "Ca2+ release upon drug addition in absence of extracellular Ca2+", "setting": "[1]; 10 μM", "result": "Ca^2+ release was observed directly upon drug addition"},
      {"measurement": "steady-state plateau phase of Ca2+ entry", "setting": "[1]; 10 μM", "result": "re-reached after a few min"},
      {"measurement": "initial Ca2+ peak after Ca2+ re-addition and Ca2+ entry at later stages", "setting": "[1]; 1 and 2 μM", "result": "efficiently inhibited"}
    ]}
  ]
}
